Test results from US9394284B2, “Compounds act at multiple prostaglandin receptors giving a general anti-inflammatory response” (Allergan, Inc., priority 2010, dated 2016).

Columns and labels:
Format in all cases: cell-based
[1] = molecular target: T1, human prostanoid EP4 receptor (Homo sapiens, UniProt P35408); assay: FLIPR Ca2+ signaling antagonist assay, EP4 receptor stable cell line; settings: HEK-293 EBNA stable cell line; standard agonist PGE2; NA = inactive (no antagonism or Kb 10,000 nM); PAg, Ag not defined
T1 construct: expressed in transfected cells
How it was run: (§1)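 Peak Fluo-4 fluorescence (ex 470–495, em 515–575 nm) was read for 3.5 min on FLIPR after agonist injection and expressed relative to 10^−6 M standard agonist. Cells were HEK-293 EBNA transfectants. Test compound was added 4.5 min beforehand at 0.1–30 μM, or 0.067–1 μM for TP.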

[2] = molecular target: T2, human prostanoid IP receptor (Homo sapiens, UniProt P43119); assay: FLIPR Ca2+ signaling antagonist assay, IP receptor stable cell line; settings: HEK-293 EBNA stable cell line; standard agonist Cicaprost; NA = inactive (no antagonism or Kb 10,000 nM); PAg, Ag not defined
T2 construct: expressed in transfected cells
How it was run: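 HEK-293 EBNA cells stably expressing receptor (EP3 co-expressed with chimeric Gqi; EP1, IP, TP without exogenous G protein), Fluo-4 loaded, read on FLIPR at 37° C. Antagonist added 4.5 min before standard agonist (EP1/EP3 PGE2, IP cicaprost 10^−11–10^−5 M; TP U-46619 10^−12–10^−6 M); antagonist 0.1–30 μM, TP 0.067–1 μM; peak fluorescence relative to 10^−6 M agonist.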

[3] = molecular target: T3, human prostanoid EP3 receptor (Homo sapiens, UniProt P43115); assay: FLIPR Ca2+ signaling antagonist assay, EP3 receptor stable cell line; settings: HEK-293 EBNA stable cell line; standard agonist PGE2; NA = inactive (no antagonism or Kb 10,000 nM); PAg, Ag not defined
T3 construct: expressed in transfected cells
T3 sequence (P43115 1-390): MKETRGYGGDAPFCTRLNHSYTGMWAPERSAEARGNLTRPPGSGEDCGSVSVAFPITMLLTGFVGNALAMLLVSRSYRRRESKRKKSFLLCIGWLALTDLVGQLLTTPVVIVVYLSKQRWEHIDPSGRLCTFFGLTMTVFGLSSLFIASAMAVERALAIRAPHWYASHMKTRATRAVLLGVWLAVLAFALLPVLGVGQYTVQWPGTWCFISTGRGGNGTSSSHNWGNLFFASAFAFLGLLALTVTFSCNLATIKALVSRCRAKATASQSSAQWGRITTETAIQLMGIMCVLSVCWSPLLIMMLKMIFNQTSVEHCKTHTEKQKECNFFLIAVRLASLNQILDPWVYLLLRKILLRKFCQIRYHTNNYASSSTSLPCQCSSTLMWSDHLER
Description: The above compounds were tested for PG antagonist activity as follows using human recombinant prostanoid receptor (DP1, EP1-4, FP, IP and TP) stable cell lines:
In order to measure the response of Gs and Gi coupled prostanoid receptors as a Ca^2+ signal, chimeric G protein cDNAs were used. Stable cell lines over-expressing human prostanoid DP1, EP1-4, FP, IP, and TP receptors were established as follows:
Briefly, human prostanoid DP1, EP2, and EP4 receptor cDNAs were co-transfected with chimeric Gqs cDNA containing a haemagglutanin (HA) epitope; human prostanoid EP3 receptors were co-transfected with chimeric Gqi-HA; human EP1, FP, IP, and TP receptor cDNAs were expressed with no exogenous G-proteins. Gqs and Gqi chimeric cDNAs (Molecular Devices, Sunnyvale, Calif., U.S.A.), as well as cDNAs of prostanoid receptors, were cloned into a pCEP4 vector with a hygromycin B selection marker. Transfection into HEK-293 EBNA (Epstein-Barr virus nuclear antigen) cells was achieved by the FuGENE 6 transfection Reagent (Roche Applied Science, Indianapolis, Ind., USA). Stable transfectants were selected according to hygromycin resistance. Because Gqs and Gqi contained an HA epitope, G-protein expression was detected by Western blotting analysis using anti-mouse HA monoclonal antibody and horseradish peroxidase (HRP)-conjugated secondary antibody, while functional expression of prostanoid receptors was detected by FLIPR screening (Matias et al., 2004). These stable cell lines were validated using previously published antagonists at 10 μM against serial dilutions of standard agonists by FLIPR functional assays for Ca^2+ Signaling (as described below).
Ca^2+ signaling studies were performed using a FLIPR TETRA system (Molecular Devices, Sunnyvale, Calif., USA) in the 384-format. This is a high-throughput instrument for cell-based assays to monitor Ca^2+ signaling associated with GPCRs and ion channels. Cells were seeded at a density of 5×10^4 cells/well in BioCoat poly-D-lysine coated, black wall, clear bottom 384-well plates (BD Biosciences, Franklin lakes, NJ, USA) and allowed to attach overnight in an incubator at 37° C. The cells were then washed twice with HBSS-HEPES buffer (Hanks' balanced salt solution without bicarbonate and phenol red, 20 mM HEPES, pH 7.4) using an ELx405 Select CW Microplate Washer (BioTek, Winooski, Vt., USA). After 60 min of dye-loading in the dark using the Ca^2+-sensitive dye Fluo-4AM (Invitrogen, Carlsbad, Calif., USA), at a final concentration of 2×10^−6M, the plates were washed 4 times with HBSS-HEPES buffer to remove excess dye and leaving 50 μl of buffer in each well. The plates were then placed in the FLIPR TETRA instrument and allowed to equilibrate at 37° C. AGN-211377 was added in a 25 μl volume to each well to give final concentrations of 0.1 μM, 0.3 μM, 1 μM, 3 μM, 10 μM, and 30 μM; or 0.067 μM, 0.1 μM, 0.2 μM, 0.3 μM, 0.67 μM, and 1 μM for cells over-expressing TP receptors. After 4.5 minutes, a 7-point serial dilution of the standard agonist for the corresponding receptor, in a 25 μl volume was injected at the final concentrations from 10^−11M to 10^−5M in 10-fold serial dilution increments for cells expressing human recombinant DP1, EP1, EP2, EP3, EP4, FP, and IP receptors. The dose range for the standard agonist for human recombinant TP receptors was from 10^−12 M to 10^−6 M. HBSS-HEPES buffer was used as the negative control for the standard agonists. Cells were excited with LED (light emitting diode) excitation at 470-495 nm and emission was measured through an emission filter at 515-575 nm. Assay plates were read for 3.5 minutes using the FLIPR^TETRA. The peak increase in fluorescence intensity was recorded for each well. On each plate, negative controls, dose response of positive controls, and co-treatments of antagonist-agonist for each dose were in triplicates.
Standard agonists were as follows: DP=BW 245C, EP1-EP4=PGE2, FP=17-phenyl-PGF2α, IP=Cicaprost, and TP=U-46619. […]

[4] = molecular target: T4, human prostanoid EP1 receptor (Homo sapiens, UniProt P34995); assay: FLIPR Ca2+ signaling antagonist assay, EP1 receptor stable cell line; settings: HEK-293 EBNA stable cell line; standard agonist PGE2; NA = inactive (no antagonism or Kb 10,000 nM); PAg, Ag not defined
T4 construct: expressed in transfected cells
T4 sequence (P34995 1-402): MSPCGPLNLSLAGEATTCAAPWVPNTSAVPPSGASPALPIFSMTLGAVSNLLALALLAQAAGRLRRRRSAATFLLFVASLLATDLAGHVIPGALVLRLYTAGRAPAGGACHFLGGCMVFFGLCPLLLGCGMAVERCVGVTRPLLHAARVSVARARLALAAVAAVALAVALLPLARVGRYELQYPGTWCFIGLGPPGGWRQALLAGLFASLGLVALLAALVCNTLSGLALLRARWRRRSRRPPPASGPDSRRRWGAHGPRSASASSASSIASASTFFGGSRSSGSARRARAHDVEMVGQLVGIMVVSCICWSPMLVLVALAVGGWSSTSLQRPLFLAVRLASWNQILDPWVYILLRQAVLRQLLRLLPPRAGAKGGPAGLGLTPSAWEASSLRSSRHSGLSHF
How it was run: as §1

T1 sequence (P35408 whole entry): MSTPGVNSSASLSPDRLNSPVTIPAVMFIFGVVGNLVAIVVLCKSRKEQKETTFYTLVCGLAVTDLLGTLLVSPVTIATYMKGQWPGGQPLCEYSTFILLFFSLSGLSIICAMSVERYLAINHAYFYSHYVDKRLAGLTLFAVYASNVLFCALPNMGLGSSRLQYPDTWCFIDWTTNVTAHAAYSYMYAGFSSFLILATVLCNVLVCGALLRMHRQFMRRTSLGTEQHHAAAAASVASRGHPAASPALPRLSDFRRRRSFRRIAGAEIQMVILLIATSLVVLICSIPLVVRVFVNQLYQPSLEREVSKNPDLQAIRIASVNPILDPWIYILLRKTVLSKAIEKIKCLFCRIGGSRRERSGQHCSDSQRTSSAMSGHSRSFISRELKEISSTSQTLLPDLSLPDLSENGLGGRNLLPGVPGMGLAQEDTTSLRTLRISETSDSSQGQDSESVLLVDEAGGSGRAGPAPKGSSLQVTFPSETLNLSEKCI
T2 sequence (P43119 whole entry): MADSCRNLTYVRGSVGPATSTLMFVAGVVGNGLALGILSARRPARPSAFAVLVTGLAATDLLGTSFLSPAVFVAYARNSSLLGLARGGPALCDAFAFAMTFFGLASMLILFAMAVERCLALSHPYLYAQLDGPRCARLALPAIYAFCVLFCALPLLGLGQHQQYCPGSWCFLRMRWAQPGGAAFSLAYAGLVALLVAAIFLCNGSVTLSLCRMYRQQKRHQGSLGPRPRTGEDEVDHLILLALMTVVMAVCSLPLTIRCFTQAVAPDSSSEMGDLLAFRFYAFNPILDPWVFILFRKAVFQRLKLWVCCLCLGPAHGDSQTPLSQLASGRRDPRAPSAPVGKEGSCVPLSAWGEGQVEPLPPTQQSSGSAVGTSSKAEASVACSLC

SMILES | Kb [1] [nM] | IP (FLIPR) Kb [2] | Kb [3] [nM] | Kb [4] [nM] | Kb [2] [nM] | EP4 (FLIPR) Kb [1] | EP3 (FLIPR) Kb [3]
Cc1cc(CCC(=O)O)nn1Cc1cc(C(F)(F)F)ccc1OCc1ccc(Cl)cc1 [Example 52, 3-[1-[2-(4-Chloro-benzyloxy)-5-trifluoromethyl-benzyl]-5-methyl-1H-pyrazol-3-yl]-propionic acid] | 1500 | PAg | 2800 | 5 |  |  | 
CCC(CC)COc1ccc(Br)cc1Cn1nc(CCC(=O)O)cc1C(C)C [Example 55, 3-{1-[5-Bromo-2-(2-ethyl-butoxy)-benzyl]-5-isopropyl-1H-pyrazol-3-yl}-propionic acid] | 80 |  | 3700 | 60 | 1100 |  | 
CCCc1cc(CCC(=O)O)nn1Cc1cc(Br)ccc1OCC(CC)CC [Example 56, 3-{1-[5-Bromo-2-(2-ethyl-butoxy)-benzyl]-5-propyl-1H-pyrazol-3-yl}-propionic acid] | 3 |  | 2700 | 60 | 1300 |  | 
CCC(CC)COc1ccc(Br)cc1Cn1nc(CCC(=O)O)cc1C(C)(C)C [Example 57, 3-{1-[5-Bromo-2-(2-ethyl-butoxy)-benzyl]-5-tert-butyl-1H-pyrazol-3-yl}-propionic acid] | 700 |  | 6600 | 150 | 800 |  | 
CCC(CC)COc1ccc(Br)cc1Cn1nc(CCC(=O)O)cc1C(F)(F)F [Example 58, 3-{1-[5-Bromo-2-(2-ethyl-butoxy)-benzyl]-5-trifluororomethyl-1H-pyrazol-3-yl}-propionic acid] |  | PAg |  | 370 |  | PAg | PAg
Cc1cc(CC(C)(C)C(=O)O)nn1Cc1cc(Br)ccc1OCC1CCCC1 [Example 71, 3-{1-[5-Bromo-2-(2-cyclopentylmethoxy)-benzyl]-5-methyl-1H-pyrazol-3-yl}-2,2-dimethyl-propionic acid] | 80 |  | 3200 | 50 | 3100 |  | 
Cc1cc(CCC(=O)O)nn1Cc1cc(Cl)ccc1C#CC1CCCC1 [Example 73, 3-{1-[5-Chloro-2-cyclopentylethynyl-benzyl]-5-methyl-1H-pyrazol-3-yl}-propionic acid] | 600 |  | 2700 | 6 | 1600 |  | 
Cc1cc(CCC(=O)NS(=O)(=O)C(F)(F)F)nn1Cc1cc(Cl)ccc1CCC1CCCC1 [Example 75] | 1000 |  | 1600 | 60 | 1900 |  | 
